Test results: EP4501920A1, “NOVEL PYRAZOLE DERIVATIVES” (Aptabio Therapeutics Inc., priority 2022, dated 2023)

What was measured:
[1] = test system: human foreskin fibroblasts (HFF-1, ATCC); test: Collagen gel contraction induced by TGF-β1; format: cell-based; conditions: HFF-1 cells and bovine type I collagen; TGF-β1 (10 ng/ml); 72 hours; FIG. 7
From the text: In order to confirm the effect of the compounds of Synthetic examples on differentiation of fibroblasts into myofibroblasts, the inhibitory effect of the compounds of Synthetic examples on the phenomenon of contraction of gel induced by interaction of human foreskin fibroblasts (HFF-1, ATCC) and collagen was observed.
The mixed solution of the HFF-1 cells and collagen (bovine type I collagen) prepared at a concentration of 3×10^6 cells/ml was aliquoted in a 24 well plate, respectively, and then cultured under the condition of 5% CO2, 37 °C for 1 hour to induce gel polymerization. Then, after suspending the gel attached on the plate from the plate using a spoon, a medium comprising TGF-β1 and Synthetic example compounds was added to each well. After culturing for 72 hours, the Synthetic example compounds were treated by 10, 20, 30, 40, 60 and 80 µM to measure the size of the gel, and thereby, the degree of contraction of the gel by drug treatment was confirmed.

IL-6 = test: Expression of IL-6 in pancreatic cancer associated fibroblasts (ELISA); format: cell-based, human; conditions: P.CAF cells; compounds 10, 20, 30, 40, 60 and 80 µM for 48 hours; FIG. 5
Protocol: (§1) In order to confirm the effect of the compounds of Synthetic examples of the present invention on inflammation reaction in cancer associated fibroblasts, whether the expression of IL6 and IL8 was inhibited by the compounds of Synthetic examples in pancreatic cancer associated fibroblasts (PCAF) was observed.
(§2) After inoculating 1.5×10^5 cells in a 6 well plate and then culturing in P.CAF complete media for 48 hours, the compounds of Synthetic examples were treated by 10, 20, 30, 40, 60 and 80 µM for 48 hours according to each condition, and then the expression of IL-6 and IL-8 was confirmed by performing ELISA with Quantkine ELISA kit (R&D systems) as follows.
(§3) 100 µl of the culture solution in which the compounds of Synthetic examples were treated for 48 hours was added to the microplate strip for analysis including a 100 µl assay diluent and left at a room temperature for 2 hours and then the contents were removed, and then it was washed with 400 µl wash buffer 4 times. 200 µl of a human IL-6 or IL-8 conjugate was added and left at a room temperature for 2 hours and then the contents were removed, and then it was washed with 400 µl wash buffer 4 times. 200 µl of substrate solution was added and left at a room temperature for 20 minutes and then 50 µl of stop solution was added, and the absorbance at a wavelength of 450nm was measured within 30 minutes to confirm the expression level of IL-6 and IL-8.

IL-8 = test: Expression of IL-8 in pancreatic cancer associated fibroblasts (ELISA); format: cell-based, human; conditions: P.CAF cells; compounds 10, 20, 30, 40, 60 and 80 µM for 48 hours; FIG. 6
Protocol: as §1, §2, §3

[2] = test system: N27 (rat dopaminergic neural cell, Sigma) cells; test: ROS production induced by alpha-synuclein preformed fibril (PFF) in dopaminergic neural cells (CellROX-Deep Red); format: cell-based; conditions: 0.001 µM, 24 hours, FIG. 2
Protocol: In order to confirm the effect of the compounds of Synthetic examples on ROS production from dopaminergic neural cells, ROS production was induced by alpha-synuclein preformed fibril (PFF) stimulation on N27 (rat dopaminergic neural cell, Sigma) cells and under this condition, the inhibitory effect of ROS production of the compounds of Synthetic examples was observed.
The N27 cells were cultured in RPMI medium containing 10% FBS, 1 µM angiotensin II, and the prepared cells were aliquoted at a concentration of 4×10^3 cells/well on a 6-well plate. The ROS production stimulus, PFF (preformed fibril) and the compounds of Synthetic examples were treated to the cells. After treating the compounds of Synthetic examples for 24 hours, fluorescence of each well was measured using CellROX-Deep Red reagent, thereby confirming the degree of ROS production.

[3] = test system: alpha-synuclein preformed fibril (PFF) injection Parkinson's disease mouse model; test: Brain damage treatment effect in PFF injection Parkinson's disease mouse model; format: in vivo, C57Bl/6 mice; conditions: 25 mg/kg orally once a day for 7 weeks
Protocol: In order to test the effect for preventing or treating brain disease or disorder of the compounds of Synthetic examples, it was evaluated using an alpha-synuclein preformed fibril (PFF) injection Parkinson's disease mouse model.
C57Bl/6 mice were used, and all the mice were maintained under the standard condition. The experiment was conducted by dividing the experimental animals into a normal control group in which distilled water was orally administered (negative control), an alpha-synuclein preformed fibril (PFF) injection Parkinson's disease induction group (vehicle control), and an experimental group in which the compound of Synthetic example 16 of 25 mg/kg was orally administered into the alpha-synuclein preformed fibril (PFF) injection Parkinson's induction group daily (Synthetic example) with 8 animals in each group. For the normal control group, physiological saline solution was administered, and the Synthetic example compound was orally administered once a day for 7 weeks, and then a behavior change experiment and a histopathological experiment were performed.
The behavior change was analyzed by Rota rod, pole test and hindlimb clasping, and the average value of the 3 experiments per each animal was measured. […]

[4] = test system: LX-2 (human hepatic stellate cells); test: ROS production induced by PMA in LX-2 cells; format: cell-based; conditions: FIG. 1
From the text: (§4) In order to confirm the effect of the compounds of Synthetic examples on ROS production from fibroblasts and specific substrate cells, ROS production was induced by stimulation of PMA (phorbol 12-myristate 13-acetate), TGF-β1, palmitate or high concentration-glucose, or the like, in HL-60 cells differentiated into neutrophil cells by DMSO treatment, NHLF (normal human lung fibroblast, Lonza), LX-2 (human hepatic stellate cells, Sigma), ARPE19 (human retinal pigment epithelial cell, ATCC), and KEL-FIB (Keloid fibroblast, ATCC) cells, and under this condition, the inhibitory effect of ROS production of the compounds of Synthetic examples was observed.
(§5) The NHLF (normal human lung fibroblast, Lonza), LX-2 (human hepatic stellate cells, Sigma), ARPE19 (human retinal pigment epithelial cell, ATCC), KEL-FIB (keloid fibroblast, ATCC) cells were suspended in a culture medium containing 10% FBS and aliquoted on a 96 well plate and then cultured under the condition of 5% CO2, 37°C for 24 hours. After pre-treating the compounds of Synthetic examples at a concentration of 10, 20, 30, 40, 60 and 80 µM for 30 minutes to 1 hour, the ROS stimulus was treated to each well containing the cells and drug. After additional culturing for 48 hours, the ROS production level was confirmed using L-012 or DCF-DA.

[5] = test system: NHLF (normal human lung fibroblast); test: ROS production induced by PMA in NHLF cells; format: cell-based; conditions: FIG. 1
From the text: as §4, §5

| Compound | contraction of the gel induced by TGF-β1 [1] | IL-6 expressed in P.CAF (IL-6) | IL-8 expressed in P.CAF (IL-8) | ROS production induced by PFF [2] | further results |
| --- | --- | --- | --- | --- | --- |
| CN(Cc1ccc(F)cc1F)C1CCc2nn(-c3ccccn3)c(O)c2C1 (stereo not drawn) [Compound 5, 5-[(2,4-Difluorobenzyl)methylamino]-2-(pyridin-2-yl)-4,5,6,7-tetrahydro-2H-indazol-3-ol] | effectively inhibited | effectively inhibited | effectively inhibited |  |  |
| CN(Cc1ccc(S(C)(=O)=O)cc1)C1CCc2nn(-c3ccccn3)c(O)c2C1 (stereo not drawn) [Compound 12, 5-[(4-Methanesulfonylbenzyl)methylamino]-2-(pyridin-2-yl)-4,5,6,7-tetrahydro-2H-indazol-3-ol] | effectively inhibited |  |  | effectively inhibited |  |
| COc1cccc(CN(C)C2CCc3nn(-c4ccccn4)c(O)c3C2)c1 (stereo not drawn) [Compound 13, 5-[(3-Methoxybenzyl)methylamino]-2-(pyridin-2-yl)-4,5,6,7-tetrahydro-2H-indazol-3-ol] | effectively inhibited |  |  |  |  |
| Oc1c2c(nn1-c1ccccn1)CCC(N1CCCCC1)C2 (stereo not drawn) [Compound 14, 5-Piperidin-1-yl-2-(pyridin-2-yl)-4,5,6,7-tetrahydro-2H-indazol-3-ol] | effectively inhibited |  |  |  |  |
| CN1CCN(C2CCc3nn(-c4ccccn4)c(O)c3C2)CC1 (stereo not drawn) [Compound 16, 5-(4-Methylpiperazin-1-yl)-2-(pyridin-2-yl)-4,5,6,7-tetrahydro-2H-indazol-3-ol] | effectively inhibited |  |  | effectively inhibited | Parkinson-like behavior symptoms improved ([3]; Rota rod, pole test, hindlimb clasping): ≥ 50%; aggregation and accumulation of a-synuclein improved ([3]; striatum histopathology): ≥ 50% |
| OCCOCCN1CCN(C2CCc3nn(-c4ccccn4)c(O)c3C2)CC1 (stereo not drawn) [Compound 17] |  |  |  |  | ROS production induced by PMA [4]: inhibited; ROS production induced by PMA [5]: inhibited |
| CN(Cc1cccc(S(C)(=O)=O)c1)C1CCc2nn(-c3ccccn3)c(O)c2C1 (stereo not drawn) [Compound 23, 5-[Methyl(3-methylsulfonylbenzyl)amino]-2-(pyridin-2-yl)-4,5,6,7-tetrahydro-2H-indazol-3-ol] | effectively inhibited | effectively inhibited | effectively inhibited |  |  |
| Oc1c2c(nn1-c1ccccn1)CCC(Nc1ccc(F)c(F)c1)C2 (stereo not drawn) [Compound 32, 5-(3,4-Difluorophenylamino)-2-(pyridin-2-yl)-4,5,6,7-tetrahydro-2H-indazol-3-ol] |  |  |  | effectively inhibited |  |
| CN(C1CCc2nn(-c3ccccn3)c(O)c2C1)C1CCCc2cccnc21 (stereo not drawn) [Compound 33, 5-[Methyl(5,6,7,8-tetrahydroquinolin-8-yl)amino]-2-(pyridin-2-yl)-4,5,6,7-tetrahydro-2H-indazol-3-ol] | effectively inhibited | effectively inhibited | effectively inhibited |  |  |
| O=C(C1CC1)N1CCN(C2CCc3nn(-c4ccccn4)c(O)c3C2)CC1 (stereo not drawn) [Compound 38, Cyclopropyl[4-(3-hydroxy-2-(pyridin-2-yl)-4,5,6,7-tetrahydro-2-indazol-5-yl)piperazin-1-yl]methanone] | effectively inhibited | effectively inhibited | effectively inhibited |  |  |
| CN(Cc1cc2ccccc2cn1)C1CCc2nn(-c3ccccn3)c(O)c2C1 (stereo not drawn) [Compound 62, 5-[(Isoquinolin-3-ylmethyl)methylamino]-2-(pyridin-2-yl)-4,5,6,7-tetrahydro-2H-indazol-3-ol] | effectively inhibited | effectively inhibited | effectively inhibited |  |  |
| CN(Cc1ccc2ncccc2c1)C1CCc2nn(-c3ccccn3)c(O)c2C1 (stereo not drawn) [Compound 63, 5-[Methyl(quinolin-6-ylmethyl)amino]-2-(pyridin-2-yl)-4,5,6,7-tetrahydro-2H-indazol-3-ol] | effectively inhibited | effectively inhibited | effectively inhibited |  |  |
| CN1CCN(C2CCc3nn(-c4ccc(C(F)(F)F)cn4)c(O)c3C2)CC1 (stereo not drawn) [Compound 82, 5-(4-Methylpiperazin-1-yl)-2-(5-(trifluoromethyl)pyridin-2-yl)-4,5,6,7-tetrahydro-2H-indazol-3-ol] |  |  |  | effectively inhibited |  |
